In the NIST ThermoML archive (doi:10.1021/je400486p):

Test: xn = mol fraction of the nth substance listed
Conditions: 101.3 kPa, Liquid; for viscosity: Concentric cylinders viscometry; for mass density: Vibrating tube method

CN1CCCC1=O [N-methylpyrrolidone] + CCC(C)O
Conditions	mass density [kg/m3]	viscosity [mPa·s]
288.15 K, x2 = 0	1037.3	1.99
288.15 K, x2 = 0.1049	1014.52	1.984
288.15 K, x2 = 0.2001	993.63	1.974
288.15 K, x2 = 0.3009	971.257	1.972
288.15 K, x2 = 0.4019	948.589	2.005
288.15 K, x2 = 0.5003	926.282	2.032
288.15 K, x2 = 0.5995	903.599	2.118
288.15 K, x2 = 0.7004	880.362	2.302
288.15 K, x2 = 0.7985	857.64	2.618
288.15 K, x2 = 0.899	834.259	3.227
293.15 K, x2 = 0	1032.84	1.823
293.15 K, x2 = 0.1049	1010.11	1.815
293.15 K, x2 = 0.2001	989.247	1.801
293.15 K, x2 = 0.3009	966.914	1.798
293.15 K, x2 = 0.4019	944.287	1.817
293.15 K, x2 = 0.5003	922.02	1.839
293.15 K, x2 = 0.5995	899.376	1.905
293.15 K, x2 = 0.7004	876.183	2.048
293.15 K, x2 = 0.7985	853.51	2.29
293.15 K, x2 = 0.899	830.183	2.757
298.15 K, x2 = 0	1028.38	1.679
298.15 K, x2 = 0.1049	1005.69	1.664
298.15 K, x2 = 0.2001	984.854	1.652
298.15 K, x2 = 0.3009	962.556	1.647
298.15 K, x2 = 0.4019	939.97	1.655
298.15 K, x2 = 0.5003	917.742	1.67
298.15 K, x2 = 0.5995	895.133	1.72
298.15 K, x2 = 0.7004	871.975	1.832
298.15 K, x2 = 0.7985	849.341	2.019
298.15 K, x2 = 0.899	826.054	2.368
303.15 K, x2 = 0	1023.92	1.555
303.15 K, x2 = 0.1049	1001.27	1.538
303.15 K, x2 = 0.2001	980.46	1.524
303.15 K, x2 = 0.3009	958.194	1.514
303.15 K, x2 = 0.4019	935.644	1.516
303.15 K, x2 = 0.5003	913.448	1.522
303.15 K, x2 = 0.5995	890.869	1.56
303.15 K, x2 = 0.7004	867.739	1.645
303.15 K, x2 = 0.7985	845.132	1.792
303.15 K, x2 = 0.899	821.864	2.051
308.15 K, x2 = 0	1019.46	1.444
308.15 K, x2 = 0.1049	996.845	1.427
308.15 K, x2 = 0.2001	976.091	1.411
308.15 K, x2 = 0.3009	953.86	1.399
308.15 K, x2 = 0.4019	931.323	1.393
308.15 K, x2 = 0.5003	909.136	1.397
308.15 K, x2 = 0.5995	886.575	1.424
308.15 K, x2 = 0.7004	863.468	1.489
308.15 K, x2 = 0.7985	840.874	1.598
308.15 K, x2 = 0.899	817.592	1.786
313.15 K, x2 = 0	1015	1.346
313.15 K, x2 = 0.1049	992.413	1.327
313.15 K, x2 = 0.2001	971.652	1.311
313.15 K, x2 = 0.3009	949.443	1.297
313.15 K, x2 = 0.4019	926.949	1.285
313.15 K, x2 = 0.5003	904.8	1.285
313.15 K, x2 = 0.5995	882.258	1.303
313.15 K, x2 = 0.7004	859.157	1.351
313.15 K, x2 = 0.7985	836.567	1.431
313.15 K, x2 = 0.899	813.284	1.566
318.15 K, x2 = 0	1010.53	1.259
318.15 K, x2 = 0.1049	987.978	1.239
318.15 K, x2 = 0.2001	967.237	1.221
318.15 K, x2 = 0.3009	945.05	1.206
318.15 K, x2 = 0.4019	922.578	1.19
318.15 K, x2 = 0.5003	900.445	1.186
318.15 K, x2 = 0.5995	877.912	1.197
318.15 K, x2 = 0.7004	854.81	1.23
318.15 K, x2 = 0.7985	832.207	1.286
318.15 K, x2 = 0.899	808.882	1.379
323.15 K, x2 = 0	1006.06	1.182
323.15 K, x2 = 0.1049	983.533	1.161
323.15 K, x2 = 0.2001	962.815	1.141
323.15 K, x2 = 0.3009	940.651	1.124
323.15 K, x2 = 0.4019	918.196	1.104
323.15 K, x2 = 0.5003	896.069	1.098
323.15 K, x2 = 0.5995	873.531	1.103
323.15 K, x2 = 0.7004	850.415	1.124
323.15 K, x2 = 0.7985	827.785	1.162
323.15 K, x2 = 0.899	804.404	1.222
